These results are taken from US11034672B1, “Tyrosine kinase inhibitor compositions, methods of making and methods of use” (Black Diamond Therapeutics, Inc., priority 2018, dated 2021).

Common to all, as to assay type: cell-based
The target of assay [1] is T1, HER2 S310F (Homo sapiens, UniProt P04626, S310F).
T1 construct: expressed in transfected cells; host or cells: BaF3 (murine pro-B)
The assay is described as follows: BaF3 cell proliferation assay, HER2 S310F (Table B). Conditions: potency code, 3 days, CellTiterGlo, read-out: HER2 S310F (Activity for Inhibiting HER2). For orientation: In ATP-based viability assays light output follows the ATP content of the culture.

Assay [2] concerns the target T2, EGFR WT (Homo sapiens, UniProt P00533). The experiment in a line: BaF3 cell proliferation assay, EGFR WT (Table A). Conditions: potency code, 3 days, CellTiterGlo, read-out: EGFR WT (Activity for Inhibiting EGFR). Summed up: (§1)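 Mouse BaF3 cells were retrovirally transduced (pMXs-IRES-Blasticidin, VSV-G pseudotyped virus from HEK 293T) with the human EGFR or HER2 variant, selected in 10 μg/ml Blasticidin for one week, then made IL-3 independent. EC50 values come from proliferation of these lines.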

Assay [3] concerns the target T1, HER2 S310F. The experiment in a line: Activity for inhibiting HER2 (Table B), HER2 S310F. Conditions: read-out: HER2 S310F, potency code (IC50). How it is done: (§2) EC50 values were determined with the same application.
Assay [4] concerns the target T3, EGFR SVD (Homo sapiens, UniProt P00533, DUP768-770).
T3 construct: expressed in transfected cells; host or cells: BaF3 (murine pro-B), retroviral pMXs-IRES-Blasticidin
The experiment in a line: Activity for inhibiting EGFR (Table A), EGFR SVD. Conditions: read-out: EGFR SVD, potency code (IC50).

Assay [5] deals with T4, EGFR V3 (Homo sapiens, UniProt P00533, DELINS30-297G).
T4 construct: expressed in transfected cells; host or cells: BaF3 (murine pro-B), retroviral pMXs-IRES-Blasticidin
The assay is described as follows: BaF3 cell proliferation assay, EGFR V3 (Table A). Conditions: potency code, 3 days, CellTiterGlo, read-out: EGFR V3 (Activity for Inhibiting EGFR). Summed up: as §1

Assay [6] concerns the target T2, EGFR WT. The assay is described as follows: Activity for inhibiting EGFR (Table A), EGFR WT. Conditions: read-out: EGFR WT, potency code (IC50).
Assay [7] addresses T5, HER2 WT (Homo sapiens, UniProt P04626). The assay is described as follows: BaF3 cell proliferation assay, HER2 WT (Table B). Particulars: potency code, 3 days, CellTiterGlo, read-out: HER2 WT (Activity for Inhibiting HER2).
The target in assay [8] is T5, HER2 WT. The assay is described as follows: Activity for inhibiting HER2 (Table B), HER2 WT.
In assay [9] the target is T4, EGFR V3. The assay is described as follows: Activity for inhibiting EGFR (Table A), EGFR V3 (EGFR-Viii). Particulars: read-out: EGFR V3, potency code (IC50).
In assay [10] the target is T3, EGFR SVD. The assay is described as follows: BaF3 cell proliferation assay, EGFR SVD (Table A). Conditions: potency code, 3 days, CellTiterGlo, read-out: EGFR SVD (Activity for Inhibiting EGFR). Summed up:
as §1

Assay [11] concerns the target T6, EGFR NPH (Homo sapiens, UniProt P00533, DUP771-773).
T6 construct: expressed in transfected cells; host or cells: BaF3 (murine pro-B), retroviral pMXs-IRES-Blasticidin
The assay is described as follows: BaF3 cell proliferation assay, EGFR NPH (Table A). Conditions: potency code, 3 days, CellTiterGlo, read-out: EGFR NPH (Activity for Inhibiting EGFR). Summed up:
as §1

Assay [12] concerns the target T7, HER2 YVMA (Homo sapiens, UniProt P04626, INS775YVMA).
T7 construct: expressed in transfected cells; host or cells: BaF3 (murine pro-B)
The experiment in a line: BaF3 cell proliferation assay, HER2 YVMA (Table B). Conditions: potency code, 3 days, CellTiterGlo, read-out: HER2 YVMA (Activity for Inhibiting HER2).

Assay [13] deals with T7, HER2 YVMA. The assay is described as follows: Activity for inhibiting HER2 (Table B), HER2 YVMA. Particulars: read-out: HER2 YVMA, potency code (IC50). As to the method: as §2
The target in assay [14] is T6, EGFR NPH. The assay is described as follows: Activity for inhibiting EGFR (Table A), EGFR NPH. Particulars: read-out: EGFR NPH, potency code (IC50).
[15] abbreviates: Table B, read-out: HER2 WT, potency code (IC50).
The mark [16] stands for this setting: text lists of compounds, read-out: IC50 value for inhibiting wild-type HER2.

T3 sequence (P00533 with tags, fused parts or gaps DUP768-770): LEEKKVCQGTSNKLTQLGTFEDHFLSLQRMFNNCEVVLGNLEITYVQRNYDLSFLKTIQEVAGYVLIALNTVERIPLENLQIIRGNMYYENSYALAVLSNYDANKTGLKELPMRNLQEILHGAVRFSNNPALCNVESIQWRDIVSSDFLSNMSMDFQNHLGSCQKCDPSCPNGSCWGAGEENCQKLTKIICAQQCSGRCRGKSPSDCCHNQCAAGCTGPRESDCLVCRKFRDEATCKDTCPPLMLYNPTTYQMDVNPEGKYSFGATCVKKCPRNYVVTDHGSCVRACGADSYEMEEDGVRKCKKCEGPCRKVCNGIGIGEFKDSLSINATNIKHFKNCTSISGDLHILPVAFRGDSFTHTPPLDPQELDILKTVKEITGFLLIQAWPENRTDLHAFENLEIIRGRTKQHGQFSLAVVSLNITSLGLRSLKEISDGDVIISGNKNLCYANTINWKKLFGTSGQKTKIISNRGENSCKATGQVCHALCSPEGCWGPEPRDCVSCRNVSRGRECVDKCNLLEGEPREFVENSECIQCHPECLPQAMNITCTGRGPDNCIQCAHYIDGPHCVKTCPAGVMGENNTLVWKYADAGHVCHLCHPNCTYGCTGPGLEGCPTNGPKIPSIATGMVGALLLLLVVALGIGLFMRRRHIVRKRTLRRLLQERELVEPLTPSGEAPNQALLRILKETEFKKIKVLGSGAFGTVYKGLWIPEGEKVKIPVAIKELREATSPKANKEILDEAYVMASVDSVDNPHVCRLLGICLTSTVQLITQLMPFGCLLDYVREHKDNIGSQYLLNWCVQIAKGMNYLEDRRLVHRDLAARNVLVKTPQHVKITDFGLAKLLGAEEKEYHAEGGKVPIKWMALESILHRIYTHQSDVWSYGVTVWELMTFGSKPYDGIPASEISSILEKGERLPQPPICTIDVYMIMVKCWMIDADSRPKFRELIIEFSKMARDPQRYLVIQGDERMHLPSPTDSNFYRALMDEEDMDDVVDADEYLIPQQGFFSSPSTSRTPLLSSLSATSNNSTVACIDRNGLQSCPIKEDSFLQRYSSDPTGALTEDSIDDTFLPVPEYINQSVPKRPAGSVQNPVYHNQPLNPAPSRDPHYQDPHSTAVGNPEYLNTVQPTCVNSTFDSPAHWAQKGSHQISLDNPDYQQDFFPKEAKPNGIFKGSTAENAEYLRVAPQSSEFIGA
T2 sequence (P00533 25-1210 N540K): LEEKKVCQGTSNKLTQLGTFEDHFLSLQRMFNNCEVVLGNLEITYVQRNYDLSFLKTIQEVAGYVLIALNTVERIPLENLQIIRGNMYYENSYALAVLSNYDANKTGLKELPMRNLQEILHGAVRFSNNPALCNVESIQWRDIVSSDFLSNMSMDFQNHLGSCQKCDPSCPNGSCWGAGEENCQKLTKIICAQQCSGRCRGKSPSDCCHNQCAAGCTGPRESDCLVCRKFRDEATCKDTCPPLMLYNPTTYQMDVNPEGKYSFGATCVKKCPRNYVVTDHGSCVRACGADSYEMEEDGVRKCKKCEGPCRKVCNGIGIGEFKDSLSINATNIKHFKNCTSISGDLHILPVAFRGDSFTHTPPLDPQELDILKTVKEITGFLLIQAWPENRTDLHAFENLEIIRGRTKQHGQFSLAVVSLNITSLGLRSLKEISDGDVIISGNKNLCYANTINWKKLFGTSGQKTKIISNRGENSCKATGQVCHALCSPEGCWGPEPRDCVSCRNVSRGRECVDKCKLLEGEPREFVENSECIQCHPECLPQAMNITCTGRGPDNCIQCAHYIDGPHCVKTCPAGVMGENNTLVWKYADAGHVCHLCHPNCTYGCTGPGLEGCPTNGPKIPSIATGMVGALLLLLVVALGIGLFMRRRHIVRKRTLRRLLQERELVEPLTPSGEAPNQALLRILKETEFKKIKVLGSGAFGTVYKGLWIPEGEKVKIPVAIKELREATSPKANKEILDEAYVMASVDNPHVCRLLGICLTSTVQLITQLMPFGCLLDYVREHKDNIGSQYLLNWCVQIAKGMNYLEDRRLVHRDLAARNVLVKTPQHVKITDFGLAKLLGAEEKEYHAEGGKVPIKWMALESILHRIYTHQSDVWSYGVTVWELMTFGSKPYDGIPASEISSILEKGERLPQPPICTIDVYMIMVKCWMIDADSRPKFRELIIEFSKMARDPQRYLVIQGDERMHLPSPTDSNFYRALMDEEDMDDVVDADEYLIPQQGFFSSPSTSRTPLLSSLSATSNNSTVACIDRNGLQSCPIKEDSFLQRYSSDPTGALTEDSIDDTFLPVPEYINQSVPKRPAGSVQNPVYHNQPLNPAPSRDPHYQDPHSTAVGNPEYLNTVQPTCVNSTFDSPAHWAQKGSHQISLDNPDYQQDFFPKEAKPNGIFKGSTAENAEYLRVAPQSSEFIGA
T7 sequence (P04626 with tags, fused parts or gaps INS775YVMA): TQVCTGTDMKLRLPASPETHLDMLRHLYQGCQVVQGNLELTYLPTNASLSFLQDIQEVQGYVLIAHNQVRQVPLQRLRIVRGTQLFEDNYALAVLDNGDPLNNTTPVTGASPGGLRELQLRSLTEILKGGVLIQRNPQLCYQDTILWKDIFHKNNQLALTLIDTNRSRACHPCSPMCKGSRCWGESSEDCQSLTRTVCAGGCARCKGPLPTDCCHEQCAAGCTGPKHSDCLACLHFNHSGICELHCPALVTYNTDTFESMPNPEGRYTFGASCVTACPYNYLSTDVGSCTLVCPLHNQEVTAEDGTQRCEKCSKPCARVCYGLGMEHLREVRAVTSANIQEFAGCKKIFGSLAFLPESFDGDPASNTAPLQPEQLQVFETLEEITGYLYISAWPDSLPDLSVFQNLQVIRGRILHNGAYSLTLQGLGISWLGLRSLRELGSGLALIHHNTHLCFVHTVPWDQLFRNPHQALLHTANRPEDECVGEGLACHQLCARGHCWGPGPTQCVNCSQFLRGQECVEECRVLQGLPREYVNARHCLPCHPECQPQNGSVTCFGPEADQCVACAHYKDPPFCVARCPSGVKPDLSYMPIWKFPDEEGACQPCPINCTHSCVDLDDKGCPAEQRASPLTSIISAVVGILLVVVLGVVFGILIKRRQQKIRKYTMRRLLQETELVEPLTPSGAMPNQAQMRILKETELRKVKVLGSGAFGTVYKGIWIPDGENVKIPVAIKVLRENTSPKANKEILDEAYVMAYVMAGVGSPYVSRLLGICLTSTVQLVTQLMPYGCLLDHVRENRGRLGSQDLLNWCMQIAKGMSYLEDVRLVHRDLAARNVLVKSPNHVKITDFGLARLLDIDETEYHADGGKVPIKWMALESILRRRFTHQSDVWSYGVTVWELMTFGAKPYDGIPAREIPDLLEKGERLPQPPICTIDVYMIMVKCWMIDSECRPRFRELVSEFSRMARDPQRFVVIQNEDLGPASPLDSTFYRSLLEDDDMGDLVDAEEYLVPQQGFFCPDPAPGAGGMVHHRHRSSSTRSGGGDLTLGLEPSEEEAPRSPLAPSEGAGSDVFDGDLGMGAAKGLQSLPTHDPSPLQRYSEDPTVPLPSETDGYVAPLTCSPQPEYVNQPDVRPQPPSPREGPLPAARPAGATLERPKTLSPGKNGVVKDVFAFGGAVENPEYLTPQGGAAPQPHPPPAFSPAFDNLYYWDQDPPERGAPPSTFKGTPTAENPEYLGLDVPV
T6 sequence (P00533 with tags, fused parts or gaps DUP771-773): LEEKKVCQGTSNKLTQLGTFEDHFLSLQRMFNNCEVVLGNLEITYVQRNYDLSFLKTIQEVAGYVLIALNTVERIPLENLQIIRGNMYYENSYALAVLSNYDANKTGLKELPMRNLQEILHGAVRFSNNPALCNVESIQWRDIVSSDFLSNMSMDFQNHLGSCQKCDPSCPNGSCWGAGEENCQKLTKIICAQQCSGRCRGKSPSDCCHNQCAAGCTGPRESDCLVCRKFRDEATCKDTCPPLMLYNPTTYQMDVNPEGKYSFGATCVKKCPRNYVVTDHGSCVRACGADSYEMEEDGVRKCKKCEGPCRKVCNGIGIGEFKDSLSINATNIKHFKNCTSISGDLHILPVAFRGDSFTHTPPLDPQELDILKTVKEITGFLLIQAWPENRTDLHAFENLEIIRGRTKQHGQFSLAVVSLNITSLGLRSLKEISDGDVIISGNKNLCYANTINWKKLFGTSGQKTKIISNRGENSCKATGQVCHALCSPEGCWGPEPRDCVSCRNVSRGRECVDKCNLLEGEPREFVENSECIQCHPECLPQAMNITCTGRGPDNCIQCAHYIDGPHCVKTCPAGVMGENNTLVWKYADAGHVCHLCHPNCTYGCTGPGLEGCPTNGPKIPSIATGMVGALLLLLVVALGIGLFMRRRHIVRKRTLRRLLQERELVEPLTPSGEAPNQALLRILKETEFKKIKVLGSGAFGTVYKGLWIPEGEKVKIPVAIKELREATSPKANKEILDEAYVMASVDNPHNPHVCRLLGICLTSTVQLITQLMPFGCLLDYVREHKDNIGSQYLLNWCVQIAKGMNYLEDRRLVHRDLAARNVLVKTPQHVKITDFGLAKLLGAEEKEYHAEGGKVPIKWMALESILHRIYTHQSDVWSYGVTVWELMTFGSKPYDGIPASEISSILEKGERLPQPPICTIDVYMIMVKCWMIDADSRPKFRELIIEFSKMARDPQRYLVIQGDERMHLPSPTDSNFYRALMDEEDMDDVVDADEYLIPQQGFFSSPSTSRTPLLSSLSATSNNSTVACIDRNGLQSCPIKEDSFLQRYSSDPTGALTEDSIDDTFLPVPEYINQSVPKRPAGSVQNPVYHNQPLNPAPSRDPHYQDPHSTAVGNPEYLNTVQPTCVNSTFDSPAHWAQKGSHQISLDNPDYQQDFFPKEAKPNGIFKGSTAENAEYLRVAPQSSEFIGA

Turning to `C=CC(=O)Nc1cc2c(Nc3cc(Cl)c(OCc4ccccn4)cc3F)ncnc2cc1OC1CCN(C)C1` (centres unmarked) [compound 60], the IC50 is 20 to 30 nM at HER2 S310F [1]; 200 to 300 nM at EGFR WT [2]; 20 to 30 nM at HER2 S310F [3]; 200 to 300 nM at EGFR SVD [4]; 10 to 20 nM on EGFR V3 [5]; 200 to 300 nM on EGFR WT [6]. Also, the IC50 was 5 to 10 nM on HER2 WT [7]; 5 to 10 nM on HER2 WT [8] (setting [15]); at most 10 nM at HER2 WT [8] (setting [16]); 10 to 20 nM at EGFR V3 [9]; 200 to 300 nM on EGFR SVD [10]; 200 to 300 nM on EGFR NPH [11]. The IC50 lay within 300 to 500 nM on HER2 YVMA [12], 300 to 500 nM at HER2 YVMA [13] and 200 to 300 nM on EGFR NPH [14].
`C=CC(=O)Nc1cc2c(Nc3ccc(OCc4ccccn4)c(Cl)c3)ncnc2cc1OC1CC(N(C)C)C1` (centres unmarked) [compound 62]: the IC50 lay in the range of 5 to 10 nM on HER2 S310F [1]; 300 to 500 nM at EGFR WT [2]; 5 to 10 nM on HER2 S310F [3]; 20 to 30 nM on EGFR SVD [4]; 10 to 20 nM at EGFR V3 [5]; 300 to 500 nM at EGFR WT [6]. In addition, the IC50 at HER2 WT [7] is under 5 nM; at HER2 WT [8] (setting [15]), under 5 nM; at HER2 WT [8] (setting [16]), at most 5 nM; on EGFR V3 [9], 10 to 20 nM; at EGFR SVD [10] it was 20 to 30 nM; on EGFR NPH [11] it was 30 to 50 nM. Also, the IC50 on HER2 YVMA [12], at HER2 YVMA [13] and at EGFR NPH [14] was 30 to 50 nM throughout.
`C=CC(=O)Nc1cc2c(Nc3ccc(Oc4ccccc4)cc3)ncnc2cc1OCCN1CCOCC1` [compound 63]: the IC50 is 50 to 100 nM on HER2 S310F [1]; over 1000 nM on EGFR WT [2]; 50 to 100 nM on HER2 S310F [3]; 300 to 500 nM at EGFR SVD [4]; 50 to 100 nM on EGFR V3 [5]; over 1000 nM at EGFR WT [6]. Besides, the IC50 was 30 to 50 nM on HER2 WT [7]; 30 to 50 nM at HER2 WT [8] (setting [15]); at most 50 nM on HER2 WT [8] (setting [16]); 50 to 100 nM on EGFR V3 [9]; 300 to 500 nM at EGFR SVD [10]; 300 to 500 nM at EGFR NPH [11]. Further, the IC50 on HER2 YVMA [12], on HER2 YVMA [13] and at EGFR NPH [14] was 300 to 500 nM each time.
As for `C=CC(=O)Nc1cc2c(Nc3ccc(OCc4ccccn4)c(Cl)c3)ncnc2cc1C#CC(C)(C)N(C)C` [compound 66], the IC50 at HER2 S310F [1] fell in the range of 10 to 20 nM; on EGFR WT [2] it was 500 to 1000 nM; at HER2 S310F [3], 10 to 20 nM; at EGFR SVD [4], 50 to 100 nM; at EGFR V3 [5], 20 to 30 nM; on EGFR WT [6] it was 500 to 1000 nM. The IC50 at HER2 WT [7] is 50 to 100 nM; on HER2 WT [8] (setting [15]), 50 to 100 nM; at EGFR V3 [9], 20 to 30 nM; on EGFR SVD [10], 50 to 100 nM; on EGFR NPH [11], 100 to 200 nM; on HER2 YVMA [12], 50 to 100 nM. Moreover, the IC50 at HER2 YVMA [13] was 50 to 100 nM; on EGFR NPH [14], 100 to 200 nM.
On to `C=CC(=O)Nc1cc2c(Nc3ccc(Oc4ccc(C)nc4)c(C)c3)ncnc2cc1OC1CCN(C)C1` (centres unmarked) [compound 68], for which the IC50 at HER2 S310F [1] fell in the range of 30 to 50 nM; on EGFR WT [2] it was 500 to 1000 nM; at HER2 S310F [3], 30 to 50 nM; on EGFR SVD [4] it was 500 to 1000 nM; on EGFR V3 [5] it was 100 to 200 nM; at EGFR WT [6], 500 to 1000 nM. Further, the IC50 at HER2 WT [7] was 10 to 20 nM; on HER2 WT [8] (setting [15]) it was 10 to 20 nM; at HER2 WT [8] (setting [16]) it was at most 20 nM; on EGFR V3 [9], 100 to 200 nM; on EGFR SVD [10], 500 to 1000 nM; on EGFR NPH [11], 500 to 1000 nM. In addition, the IC50 at HER2 YVMA [12] was in the range of 300 to 500 nM; at HER2 YVMA [13], 300 to 500 nM; on EGFR NPH [14], 500 to 1000 nM.
On to `C=CC(=O)Nc1cc2c(Nc3ccc(OCc4ccccn4)c(Cl)c3)ncnc2cc1N1CCC(N(C)C)CC1` [compound 78], for which the IC50 at HER2 S310F [1] is 50 to 100 nM; on EGFR WT [2] it was over 1000 nM; at HER2 S310F [3], 50 to 100 nM; on EGFR SVD [4], 200 to 300 nM; on EGFR V3 [5], 30 to 50 nM; on EGFR WT [6], over 1000 nM. Moreover, the IC50 on HER2 WT [7] was 10 to 20 nM; on HER2 WT [8] (setting [15]) it was 10 to 20 nM; at HER2 WT [8] (setting [16]), at most 20 nM; on EGFR V3 [9], 30 to 50 nM; on EGFR SVD [10], 200 to 300 nM; on EGFR NPH [11] it was 300 to 500 nM. Moreover, the values for the IC50 on HER2 YVMA [12], on HER2 YVMA [13] and on EGFR NPH [14] were 500 to 1000 nM, 500 to 1000 nM and 300 to 500 nM, respectively.
